Test results reported in patent publication US12415794B2 (Edgewise Therapeutics, Inc., priority 2018, dated 2025).

What was measured:
[1] = target: T1, cardiac myofibrils (myosin ATPase); test: Cardiac Myofibril ATPase Assay (counter screen); type: biochemical; settings: myofibrils 1.0 mg/mL, KCl omitted
T1 construct: frozen myofibril pellets obtained from cardiac tissue; from tissue
Experimental: (§1) Overview: Myosin ATPase activity is assessed by using a coupled reaction system, in which ADP generated by the myosin ATPase function is coupled to the disappearance of NADH through the pyruvate kinase/lactate dehydrogenase (PK-LDH) system. ATPase activity produces ADP, which is used as a substrate for PK to produce pyruvate and regenerate ATP. The pyruvate is then used as a substrate by LDH to oxidize NADH to NAD+. The rate of the reaction is monitored through the time-dependent disappearance of NADH using absorbance at 340 nm. Inhibition of ATPase activity by the assayed compounds is indicated by a reduced rate of NADH loss, relative to vehicle-treated controls, over the experimental time window. To assess the selectivity of the assayed compounds for skeletal myofibrils, the compounds are counter-screened in cardiac myofibrils.
Example 13: Cardiac Myofibril ATPase Assay
Following example 11, the counter screen was done using frozen myofibril pellets obtained from cardiac tissue. The assay was done in the same manner as above, with the following notable exceptions: the final well concentration of myofibrils was 1.0 mg/mL and KCl was omitted from the recipe.
Compounds of Table 1 to 3 were tested, and results of the assays appear in Tables 5a-5c herein. A=IC50 is less than or equal to 10 μM; B=IC50 is greater than 10 μM and less than 100 μM; C=IC50 is greater than 100 μM; and […].

[2] = target: skeletal myofibrils (myosin ATPase); test: Skeletal Myofibril ATPase Assay; type: biochemical; settings: Table 4A
Experimental: FIG. 7 depicts the buffer preparation procedures of Buffer A and Buffer B for the skeletal myofibril ATPase assay described in Example 12. Buffers were stored on ice until use.
Example 12: Skeletal Myofibril ATPase Assay
as §1
Materials: The following stock solutions and reagents were used in the Skeletal Myofibril ATPase Assay:
Stock Solutions of pCa buffer. Combine PIPES, CaCl2, and EGTA solutions with 70 mL of water. Adjust pH to 7.0 and bring final volume to 100 mL.
Skeletal Myofibril ATPase Assay Procedure: BSA, ATP, NADH, PEP, and DTT solutions were thawed at room temperature, then transferred to ice. Pellet-frozen myofibrils were transferred with approximately twice the required volume into a sufficiently large tube and capped. Myofibrils were thawed by rolling in a water bath for approximately 15 min at room temperature and cooled on ice. Buffers A and B were prepared by adjusting volumes as necessary for required number of wells and stored on ice. 0.5 μL of the compounds to be assayed were added into wells. 25 μL of Buffer A was dispensed into the wells, followed by 25 μL of Buffer B. The wells were measured for absorbance at 340 nm, using a kinetic protocol in which the wells are read every 1.5-2 min for 45 min. The slope of the data was approximated by subtracting the minimum absorbance value from the maximum value for each well. This was accomplished either in the SoftMax Pro software or in a spreadsheet program such as Excel. Using GraphPad Prism 8.0, the data was normalized by assigning a value of 100% to the 1% DMSO vehicle wells. Typically, a normalized 0% value was simply assigned to a (Max−Min) value of 0. The normalized data was fit to a Four Parameter Logistic sigmoidal equation, constraining the bottom to be 0 or greater. Compounds of Table 1, 2, and 3 were tested and results of the assay appear in Tables 4a-4c. A=IC50 is less than or equal to 10 μM; B=IC50 is greater than 10 μM and less than 100 μM; C=IC50 is greater than 100 μM.

T1 sequence (P12883 whole entry): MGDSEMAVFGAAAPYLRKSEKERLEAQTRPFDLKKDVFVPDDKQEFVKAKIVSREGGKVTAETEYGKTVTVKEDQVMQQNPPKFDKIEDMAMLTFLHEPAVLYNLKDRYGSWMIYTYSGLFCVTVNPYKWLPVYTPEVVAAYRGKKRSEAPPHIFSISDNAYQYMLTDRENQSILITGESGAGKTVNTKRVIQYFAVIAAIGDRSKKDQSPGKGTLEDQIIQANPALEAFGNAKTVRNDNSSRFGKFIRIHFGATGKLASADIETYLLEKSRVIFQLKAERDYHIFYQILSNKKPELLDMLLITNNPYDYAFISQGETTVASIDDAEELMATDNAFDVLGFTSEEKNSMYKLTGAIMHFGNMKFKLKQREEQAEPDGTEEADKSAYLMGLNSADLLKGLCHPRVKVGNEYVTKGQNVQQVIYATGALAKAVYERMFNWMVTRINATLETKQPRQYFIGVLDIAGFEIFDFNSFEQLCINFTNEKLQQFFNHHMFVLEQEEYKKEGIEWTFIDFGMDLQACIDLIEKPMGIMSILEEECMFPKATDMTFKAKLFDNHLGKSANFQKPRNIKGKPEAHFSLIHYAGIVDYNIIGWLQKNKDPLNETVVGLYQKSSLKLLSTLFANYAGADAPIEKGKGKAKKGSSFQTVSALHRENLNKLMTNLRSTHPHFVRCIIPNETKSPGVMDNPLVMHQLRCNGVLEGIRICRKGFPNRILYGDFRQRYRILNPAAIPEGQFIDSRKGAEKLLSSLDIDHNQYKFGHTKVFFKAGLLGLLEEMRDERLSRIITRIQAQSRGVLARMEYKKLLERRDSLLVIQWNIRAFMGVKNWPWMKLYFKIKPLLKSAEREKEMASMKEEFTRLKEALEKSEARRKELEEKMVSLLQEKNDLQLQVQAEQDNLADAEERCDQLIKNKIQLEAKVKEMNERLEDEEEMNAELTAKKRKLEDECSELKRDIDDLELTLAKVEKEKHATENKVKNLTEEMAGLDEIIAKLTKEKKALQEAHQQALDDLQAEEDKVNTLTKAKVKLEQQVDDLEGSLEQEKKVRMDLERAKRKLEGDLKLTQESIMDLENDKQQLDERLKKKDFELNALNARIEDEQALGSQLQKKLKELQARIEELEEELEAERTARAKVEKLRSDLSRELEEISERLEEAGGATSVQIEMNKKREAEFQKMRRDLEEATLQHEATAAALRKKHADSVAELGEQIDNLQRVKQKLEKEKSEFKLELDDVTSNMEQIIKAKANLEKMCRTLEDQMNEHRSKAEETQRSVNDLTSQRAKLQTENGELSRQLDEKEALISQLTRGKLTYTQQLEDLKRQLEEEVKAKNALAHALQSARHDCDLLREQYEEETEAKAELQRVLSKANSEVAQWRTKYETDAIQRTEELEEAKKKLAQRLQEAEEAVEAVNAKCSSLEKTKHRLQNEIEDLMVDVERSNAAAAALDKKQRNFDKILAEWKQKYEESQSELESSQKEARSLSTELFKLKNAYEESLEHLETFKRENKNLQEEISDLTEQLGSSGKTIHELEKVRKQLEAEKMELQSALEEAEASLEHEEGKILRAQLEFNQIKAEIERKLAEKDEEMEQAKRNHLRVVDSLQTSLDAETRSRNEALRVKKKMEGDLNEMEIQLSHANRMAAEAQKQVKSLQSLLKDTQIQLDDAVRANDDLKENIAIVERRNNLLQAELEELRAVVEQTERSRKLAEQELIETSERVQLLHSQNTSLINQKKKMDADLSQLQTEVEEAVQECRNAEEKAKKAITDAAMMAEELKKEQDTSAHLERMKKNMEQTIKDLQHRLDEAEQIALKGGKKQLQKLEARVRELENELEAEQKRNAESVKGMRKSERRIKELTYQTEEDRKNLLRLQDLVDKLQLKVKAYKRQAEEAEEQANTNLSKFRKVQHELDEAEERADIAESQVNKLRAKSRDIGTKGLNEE
T1 sequence (P08590 whole entry partner): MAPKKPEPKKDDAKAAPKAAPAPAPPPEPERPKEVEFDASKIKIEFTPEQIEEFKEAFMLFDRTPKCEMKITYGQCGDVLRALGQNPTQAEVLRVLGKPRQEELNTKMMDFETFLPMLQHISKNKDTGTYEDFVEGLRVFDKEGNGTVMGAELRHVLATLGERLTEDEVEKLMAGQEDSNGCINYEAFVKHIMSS
T1 sequence (P10916 whole entry partner): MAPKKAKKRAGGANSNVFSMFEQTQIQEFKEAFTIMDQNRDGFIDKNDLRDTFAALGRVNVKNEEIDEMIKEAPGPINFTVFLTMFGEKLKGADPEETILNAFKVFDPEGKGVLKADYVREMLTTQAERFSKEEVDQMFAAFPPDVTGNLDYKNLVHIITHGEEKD

Compound	IC50 ([1]; Table 5C) [µM]	other results
O=C(Cn1nc(-c2ccc(OC(F)(F)F)nc2)ccc1=O)NCc1ccccc1Cl [Compound I-3, N-(2-chlorobenzyl)-2-(6-oxo-3-(6-(trifluoromethoxy)pyridin-3-yl)pyridazin-1(6H)-yl)acetamide]	–	IC50 ([1]; Table 5A): > 100 µM
CC[C@H](C)NC(=O)Cn1nc(-c2ccc(OC(F)F)nc2)ccc1=O [Compound I-9, (S)-N-(sec-butyl)-2-(3-(6-(difluoromethoxy)pyridin-3-yl)-6-oxopyridazin-1(6H)-yl)acetamide]	–	IC50 ([1]; Table 5A): > 100 µM
O=C(Cn1nc(-c2ccc(NC34CC(C3)C4)nc2)ccc1=O)N1CCC1 [Compound I-39, 2-(2-(azetidin-1-yl)-2-oxoethyl)-6-(6-(bicyclo[1.1.1]pentan-1-ylamino)pyridin-3-yl)pyridazin-3(2H)-one]	–	IC50 [2]: 10 to 100 µM
CCNC(=O)Cn1nc(-c2ccc(N3CC(COC(F)(F)F)C3)nc2)ccc1=O [Compound I-40, N-ethyl-2-(6-oxo-3-(6-(3-((trifluoromethoxy)methyl)azetidin-1-yl)pyridin-3-yl)pyridazin-1(6H)-yl)acetamide]	–	IC50 [2]: 10 to 100 µM
CCNC(=O)Cn1nc(-c2ccc(NC34CCC(CC3)CC4)nc2)ccc1=O [Compound I-41, 2-(3-(6-(bicyclo[2.2.2]octan-1-ylamino)pyridin-3-yl)-6-oxopyridazin-1(6H)-yl)-N-ethylacetamide]	–	IC50 [2]: 10 to 100 µM
CCNC(=O)Cn1nc(-c2cnc(NC34CC(O)(C3)C4)nc2)ccc1=O [Compound I-42, N-ethyl-2-(3-(2-((3-hydroxybicyclo[1.1.1]pentan-1-yl)amino)pyrimidin-5-yl)-6-oxopyridazin-1(6H)-yl)acetamide]	–	IC50 [2]: 10 to 100 µM
CCNC(=O)Cn1nc(-c2ccc(N3CC4CC(C3)O4)nc2)ccc1=O [Compound I-43, 2-(3-(6-(6-oxa-3-azabicyclo[3.1.1]heptan-3-yl)pyridin-3-yl)-6-oxopyridazin-1(6H)-yl)-N-ethylacetamide]	–	IC50 [2]: 10 to 100 µM
CCNC(=O)Cn1nc(-c2cnc(OC(F)F)cc2F)ccc1=O [Compound I-80, 2-(3-(6-(difluoromethoxy)-4-fluoropyridin-3-yl)-6-oxopyridazin-1(6H)-yl)-N-ethylacetamide]	–	IC50 ([1]; Table 5A): > 100 µM
CCNC(=O)Cn1nc(-c2ccc(N3C[C@@H]4COCC3CO4)nc2)ccc1=O [Compound I-81, 2-(3-(6-((5R)-3,6-dioxa-8-azabicyclo[3.2.2]nonan-8-yl)pyridin-3-yl)-6-oxopyridazin-1(6H)-yl)-N-ethylacetamide]	–	IC50 ([1]; Table 5A): > 100 µM
CCNC(=O)Cn1nc(-c2ccc(OCC3(F)COC3)cc2)ccc1=O [IIIa-27, N-ethyl-2-(3-(4-((3-fluorooxetan-3-yl)methoxy)phenyl)-6-oxopyridazin-yl)acetamide]	> 100	–
COc1ccc(-c2ccc(=O)n(CC(=O)NCC(C)C)n2)c(F)c1 [IIIb-42, 2-(3-(2-fluoro-4-methoxyphenyl)-6-oxopyridazin-1(6H)-yl)-N-isobutylacetamide]	> 100	–
CCOc1ccc(-c2ccc(=O)n(CC(=O)N3CCCc4ccccc43)n2)cc1 [IIIc-8, 2-(2-(3,4-dihydroquinolin-1(2H)-yl)-2-oxoethyl)-6-(4-ethoxyphenyl)pyridazin-3(2H)-one]	> 100	–
COc1ccc(-c2ccc(=O)n(CC(=O)N3CCCC3)n2)cc1OC [IIIc-9, 6-(3,4-dimethoxyphenyl)-2-(2-oxo-2-(pyrrolidin-1-yl)ethyl)pyridazin-3(2H)-one]	> 100	–
COc1ccc(-c2ccc(=O)n(CC(=O)N3CCCC3)n2)cc1 [IIIc-10, 6-(4-methoxyphenyl)-2-(2-oxo-2-(pyrrolidin-1-yl)ethyl)pyridazin-3(2H)-one]	> 100	–
COc1ccc(-c2ccc(=O)n(CC(=O)N3CCC(C(N)=O)CC3)n2)cc1 [IIIc-11, 1-(2-(3-(4-methoxyphenyl)-6-oxopyridazin-1(6H)-yl)acetyl)piperidine-4-carboxamide]	> 100	–
O=C(Cn1nc(-c2ccc(Cl)cc2)ccc1=O)NCc1ccccc1Cl [IIIc-14, N-(2-chlorobenzyl)-2-(3-(4-chlorophenyl)-6-oxopyridazin-1(6H)-yl)acetamide]	> 100	–
CC(C)NC(=O)Cn1nc(-c2ccc(Cl)cc2)ccc1=O [IIIc-15, 2-(3-(4-chlorophenyl)-6-oxopyridazin-1(6H)-yl)-N-isopropylacetamide]	> 100	–
O=C(Cn1nc(-c2ccc(Cl)cc2)ccc1=O)Nc1ccc2cc[nH]c2c1 [IIIc-21, 2-(3-(4-chlorophenyl)-6-oxopyridazin-1(6H)-yl)-N-(1H-indol-6-yl)acetamide]	> 100	–
Cc1cccnc1NC(=O)Cn1nc(-c2ccc(Cl)cc2)ccc1=O [IIIc-24, 2-(3-(4-chlorophenyl)-6-oxopyridazin-1(6H)-yl)-N-(3-methylpyridin-2-yl)acetamide]	> 100	–

More lines, main results first:

IC50 ([1]; Table 5C) [µM]	Compound	other results
> 100	COc1ccc(NC(=O)Cn2nc(-c3ccc(Cl)cc3)ccc2=O)c(OC)c1 [IIIc-25, 2-(3-(4-chlorophenyl)-6-oxopyridazin-1(6H)-yl)-N-(2,4-dimethoxyphenyl)acetamide]	–
> 100	COc1ccc(Cl)cc1NC(=O)Cn1nc(-c2ccc(Cl)cc2)ccc1=O [IIIc-26, N-(5-chloro-2-methoxyphenyl)-2-(3-(4-chlorophenyl)-6-oxopyridazin-1(6H)-yl)acetamide]	–
> 100	COc1ccc(OC)c(NC(=O)Cn2nc(-c3ccc(Cl)cc3)ccc2=O)c1 [IIIc-29, 2-(3-(4-chlorophenyl)-6-oxopyridazin-1(6H)-yl)-N-(2,5-dimethoxyphenyl)acetamide]	–
> 100	O=C(Cn1nc(-c2ccc(Cl)cc2)ccc1=O)NCc1cccc(Cl)c1 [IIIc-34, N-(3-chlorobenzyl)-2-(3-(4-chlorophenyl)-6-oxopyridazin-1(6H)-yl)acetamide]	–
> 100	O=C(Cn1nc(-c2ccc(Cl)cc2)ccc1=O)NC1CC1 [IIIc-36, 2-(3-(4-chlorophenyl)-6-oxopyridazin-1(6H)-yl)-N-cyclopropylacetamide]	–
> 100	O=C(Cn1nc(-c2ccc(Cl)cc2)ccc1=O)NC1CCCC1 [IIIc-37, 2-(3-(4-chlorophenyl)-6-oxopyridazin-1(6H)-yl)-N-cyclopentylacetamide]	–
> 100	O=C(Cn1nc(-c2ccc(Cl)cc2)ccc1=O)NC1CCCCC1 [IIIc-39, 2-(3-(4-chlorophenyl)-6-oxopyridazin-1(6H)-yl)-N-cyclohexylacetamide]	–
> 100	O=C(Cn1nc(-c2ccc(Br)cc2)ccc1=O)NC1CCCC1 [IIIc-41, 2-(3-(4-bromophenyl)-6-oxopyridazin-1(6H)-yl)-N-cyclopentylacetamide]	–
> 100	O=C(Cn1nc(-c2ccc(Br)cc2)ccc1=O)NC1CCCCC1 [IIIc-42, 2-(3-(4-bromophenyl)-6-oxopyridazin-1(6H)-yl)-N-cyclohexylacetamide]	–
> 100	O=C(Cn1nc(-c2ccc(F)cc2)ccc1=O)NCc1cccc(F)c1 [IIIc-43, N-(3-fluorobenzyl)-2-(3-(4-fluorophenyl)-6-oxopyridazin-1(6H)-yl)acetamide]	–
> 100	O=C(Cn1nc(-c2ccc(F)cc2)ccc1=O)Nc1ccccc1F [IIIc-45, N-(2-fluorophenyl)-2-(3-(4-fluorophenyl)-6-oxopyridazin-1(6H)-yl)acetamide]	–
> 100	O=C(Cn1nc(-c2ccc(F)cc2)ccc1=O)N1CCCC1 [IIIc-46, 6-(4-fluorophenyl)-2-(2-oxo-2-(pyrrolidin-1-yl)ethyl)pyridazin-3(2H)-one]	–
> 100	O=C(Cn1nc(-c2ccccc2)ccc1=O)N(C1=CCCCC1)C1CC1 [IIIc-59, N-(cyclohex-1-en-1-yl)-N-cyclopropyl-2-(6-oxo-3-phenylpyridazin-1(6H)-yl)acetamide]	–
> 100	O=C(Cn1nc(-c2ccccc2)ccc1=O)NCCN1CCc2ccccc21 [IIIc-60, N-(2-(indolin-1-yl)ethyl)-2-(6-oxo-3-phenylpyridazin-1(6H)-yl)acetamide]	–
> 100	CC(C)(CNC(=O)Cn1nc(-c2ccccc2)ccc1=O)c1ccccc1F [IIIc-61, N-(2-(2-fluorophenyl)-2-methylpropyl)-2-(6-oxo-3-phenylpyridazin-1(6H)-yl)acetamide]	–
